Experimental data reported in US8822482B2, “Icotinib hydrochloride, synthesis, crystalline forms, pharmaceutical compositions, and uses thereof” (Beta Pharma, Inc., priority 2008, dated 2014).
Read-outs that look alike come from different tables or passages of the source.

Key:
EGFR tyrosine kinase = EGFR tyrosine kinase (Homo sapiens, UniProt P00533); assay: Inhibition of EGFR tyrosine kinase, 32P-ATP Crk substrate phosphorylation, polyacrylamide gel electrophoresis; assay type: biochemical; settings: for inhibition at 0.0625 µM: 62.5 nM
Procedure: (§1) Method: This method is based on the ability of protein kinases to catalyze substrate phosphorylation; radioisotope ^32P-labeled ATP (^32P-γ-ATP) is utilized in the reaction system to radioactively tag the protein substrate with ^32P. After separation and isolation of the protein substrate by polyacrylamide gel electrophoresis, the intensity of the radioactive ^32P-labeled protein substrate is recorded.
(§2) The kinase reaction buffer included 1 μM of non-isotope labeled-ATP. […] The mixture was incubated on ice for 10 min, and 1 μCi of ^32P-γ-ATP was then added. After incubation at 30° C. for 20 min, SDS (sodium dodecyl sulfate) sample buffer was added, and the mixture was boiled in a 100° C. water bath for 4 min. The samples were separated by 10% SDS-PAGE. After vacuum drying of the polyacrylamide gel, the intensity of radioactively labeled proteins were measured and recorded using a Phosphorimager (Molecular Dynamics Inc.). The signal was quantitatively analyzed utilizing ImageQuant software. The degree of Crk substrate phosphorylation was used to estimate the activity of the kinase. Inhibition (%)=(1−kinase activity of the test group/kinase activity of control group)×100%

[1] = tested on: human A431 (human epidermoid carcinoma cell line) xenograft tumor; assay: Tumor inhibition on human A431 xenograft in nude mice; assay type: in vivo, BALB/C nude mice
Excerpt: This was a preliminary study to compare Icotinib hydrochloride Crystalline Form I with erlotinib hydrochloride on inhibition of human A431 (human epidermoid carcinoma cell line) xenograft tumor.
Methods: The high EGFR-expressing human A431 (human epidermoid carcinoma cell line) cell line was selected for the xenograft study.
Tumor transplantation method: A431 human epidermoid cancer cells were inoculated subcutaneously in the right armpit of BALB/C nude mice to generate tumor nodules. These nodules were harvested, cut into 6 mm^3 blocks for routine inoculation and implanted into each mouse for the study. When tumors reached approximately 20 mm^3 in size (6-7 days), the animals were randomly divided into 4 groups of 6-9 animals/each group and body weights were recorded. The groups consisted of a control group (no drug treatment), an erlotinib hydrochloride treatment group (200 mg/kg) and high and low dose Icotinib hydrochloride Crystalline Form I treatment groups (200 and 50 mg/kg). Drugs were administered by oral gavage once daily; dosing frequency depended on the individual case for tumor growth. Tumor volume [tumor volume (V)=tumor size (L)×short diameter of tumor (S)^2/2] was measured using calipers once every 3 days. The animals were sacrificed 24-hour after the last drug administration and weighed. The tumor was removed and weighed to accurately calculate the tumor size. All group data was analyzed using the t test. If the p value was <0.05, it was considered to be statistically significant. Efficacy determination: tumor inhibition rate=[1−treatment group mean tumor weight (T)/control group mean tumor weight (C)]×100%

[2] = tested on: H460 human lung adenocarcinoma xenograft; assay type: in vivo
[3] = tested on: KB human epidermoid carcinoma cells; assay: Tumor cell growth inhibition in vitro, MTT assay; assay type: cell-based
Procedure: (§3) Method: Cells (˜2×10^3) were seeded in 96-well plates in 200 μL of RPMI1640 cell culture medium supplemented with 10% FBS. After 24 hours at 37° C. and 5% CO2, the medium was replaced in quintuplicate wells with medium containing Icotinib hydrochloride Crystalline Form I dissolved in DMSO and then serial diluted, yielding final Icotinib concentrations of 0.05-300 μM. DMSO concentrations were less than 0.1% at the highest drug concentrations. Cells were incubated in medium alone with 0.1% DMSO as a negative control. Following a 96 hr incubation, the MTT [3-(4,5-dimethylthiazol-2-yl)-2,5-diphenyltetrazolium] colorimetric assay was performed using a microplate reader (reference wavelength 450 nm, detection wavelength 570 nm). The logarithm of drug concentration on the inhibition rate was linear, and the half inhibitory concentration of the drug (IC50) was obtained.

[4] = tested on: HCT8 human colon cancer cells; assay: Tumor cell growth inhibition in vitro, MTT assay; assay type: cell-based
Procedure: as §3

[5] = tested on: A549 human non-small cell lung cancer cells; assay: Tumor cell growth inhibition in vitro, MTT assay; assay type: cell-based
Procedure: as §3

[6] = tested on: BEL-7402 human hepatoma cells; assay: Tumor cell growth inhibition in vitro, MTT assay; assay type: cell-based
Procedure: as §3

[7] = tested on: A431 human epidermoid carcinoma; assay: Tumor cell growth inhibition in vitro, MTT assay; assay type: cell-based; settings: A-431, A431, 96 hr
Procedure: as §3

[8] = tested on: H460 human lung adenocarcinoma cells; assay: Tumor cell growth inhibition in vitro, MTT assay; assay type: cell-based
Procedure: as §3

[9] = tested on: BGC-823 human gastric cancer cells; assay: Tumor cell growth inhibition in vitro, MTT assay; assay type: cell-based
Procedure: as §3

[10] = biological target: Arg (abl-related gene) tyrosine kinase (Homo sapiens, UniProt P42684); assay: Selectivity: inhibition of Arg tyrosine kinase, Crk substrate phosphorylation, same methodology; assay type: biochemical; settings: 62.5 nM
Procedure: as §1, §2

Chain of EGFR tyrosine kinase (P00533 25-1210): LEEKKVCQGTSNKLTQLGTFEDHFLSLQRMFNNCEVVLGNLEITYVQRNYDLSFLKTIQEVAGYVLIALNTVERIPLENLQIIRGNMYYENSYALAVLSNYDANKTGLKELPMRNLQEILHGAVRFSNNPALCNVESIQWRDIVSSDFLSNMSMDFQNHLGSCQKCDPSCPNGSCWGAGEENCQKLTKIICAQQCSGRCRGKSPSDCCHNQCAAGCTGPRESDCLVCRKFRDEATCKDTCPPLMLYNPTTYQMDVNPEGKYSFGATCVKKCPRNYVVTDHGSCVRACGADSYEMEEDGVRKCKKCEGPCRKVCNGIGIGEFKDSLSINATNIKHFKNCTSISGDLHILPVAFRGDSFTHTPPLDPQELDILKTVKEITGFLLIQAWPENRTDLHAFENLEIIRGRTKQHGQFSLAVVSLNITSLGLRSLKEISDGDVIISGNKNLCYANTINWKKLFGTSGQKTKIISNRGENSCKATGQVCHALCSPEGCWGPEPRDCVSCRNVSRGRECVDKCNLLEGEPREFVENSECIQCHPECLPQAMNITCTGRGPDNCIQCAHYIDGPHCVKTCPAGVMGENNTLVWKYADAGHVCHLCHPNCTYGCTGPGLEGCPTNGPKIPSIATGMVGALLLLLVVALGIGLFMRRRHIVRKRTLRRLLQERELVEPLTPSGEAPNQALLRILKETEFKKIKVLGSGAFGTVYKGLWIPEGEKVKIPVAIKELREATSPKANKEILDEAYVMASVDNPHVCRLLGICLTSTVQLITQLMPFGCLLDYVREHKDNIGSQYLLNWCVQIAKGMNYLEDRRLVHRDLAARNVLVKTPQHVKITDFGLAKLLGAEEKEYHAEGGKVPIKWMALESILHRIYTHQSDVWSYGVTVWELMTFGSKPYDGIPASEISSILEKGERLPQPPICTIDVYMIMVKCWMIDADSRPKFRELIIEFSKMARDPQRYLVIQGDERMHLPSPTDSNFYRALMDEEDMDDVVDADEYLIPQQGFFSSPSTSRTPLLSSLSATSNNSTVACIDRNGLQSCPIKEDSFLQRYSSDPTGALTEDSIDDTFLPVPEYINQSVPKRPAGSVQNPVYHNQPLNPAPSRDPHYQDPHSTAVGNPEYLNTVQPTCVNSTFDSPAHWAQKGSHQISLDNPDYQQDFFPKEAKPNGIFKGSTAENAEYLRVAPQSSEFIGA
Chain of Arg (abl-related gene) tyrosine kinase (P42684 whole entry): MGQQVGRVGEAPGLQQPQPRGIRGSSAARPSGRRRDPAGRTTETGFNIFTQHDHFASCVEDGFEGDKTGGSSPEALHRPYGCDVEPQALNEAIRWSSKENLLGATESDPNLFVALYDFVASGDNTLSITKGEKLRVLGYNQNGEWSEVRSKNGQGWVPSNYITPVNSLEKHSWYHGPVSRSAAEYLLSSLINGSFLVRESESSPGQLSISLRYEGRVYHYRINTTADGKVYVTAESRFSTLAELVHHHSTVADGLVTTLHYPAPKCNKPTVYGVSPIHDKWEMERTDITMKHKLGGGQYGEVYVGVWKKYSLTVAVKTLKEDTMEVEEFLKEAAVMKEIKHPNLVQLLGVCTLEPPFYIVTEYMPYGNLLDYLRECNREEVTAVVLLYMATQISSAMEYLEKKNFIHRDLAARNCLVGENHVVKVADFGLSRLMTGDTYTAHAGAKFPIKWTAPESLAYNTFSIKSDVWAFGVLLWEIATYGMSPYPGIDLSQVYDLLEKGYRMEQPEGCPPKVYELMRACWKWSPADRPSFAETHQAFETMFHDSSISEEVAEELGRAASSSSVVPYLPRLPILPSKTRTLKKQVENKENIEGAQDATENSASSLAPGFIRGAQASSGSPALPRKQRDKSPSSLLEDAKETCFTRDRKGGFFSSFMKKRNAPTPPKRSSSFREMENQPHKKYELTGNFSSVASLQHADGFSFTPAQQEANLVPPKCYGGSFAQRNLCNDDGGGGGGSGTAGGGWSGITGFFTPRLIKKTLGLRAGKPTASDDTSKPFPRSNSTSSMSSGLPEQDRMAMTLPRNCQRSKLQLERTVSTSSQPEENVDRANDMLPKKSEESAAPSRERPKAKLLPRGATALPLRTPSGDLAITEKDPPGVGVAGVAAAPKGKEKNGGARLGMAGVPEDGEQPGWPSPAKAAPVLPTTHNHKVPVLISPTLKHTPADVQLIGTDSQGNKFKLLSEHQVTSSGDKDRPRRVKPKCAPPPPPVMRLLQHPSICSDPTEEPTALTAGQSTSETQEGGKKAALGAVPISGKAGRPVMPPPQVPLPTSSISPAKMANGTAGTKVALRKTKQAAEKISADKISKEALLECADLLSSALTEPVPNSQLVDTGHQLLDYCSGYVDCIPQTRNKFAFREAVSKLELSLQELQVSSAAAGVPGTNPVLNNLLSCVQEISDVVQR

C#Cc1cccc(Nc2ncnc3cc4c(cc23)OCCOCCOCCO4)c1.Cl [4-[(3-ethynyl-phenyl)amino]-6,7-benzo-12-crown-quinazoline hydrochloride]
inhibition at 0.0005 µM (EGFR tyrosine kinase; 0.5 nM, read-out: inhibition rate of EGFR kinase activity): 20.5% | inhibition at 0.0025 µM (EGFR tyrosine kinase; 2.5 nM, read-out: inhibition rate of EGFR kinase activity): 36.6% | inhibition at 0.0125 µM (EGFR tyrosine kinase; 12.5 nM, read-out: inhibition rate of EGFR kinase activity): 63% | inhibition at 0.0625 µM (EGFR tyrosine kinase; parallel comparison with Arg kinase, read-out: inhibition of EGFR kinase): 97% | inhibition at 0.0625 µM (EGFR tyrosine kinase; read-out: inhibition rate of EGFR kinase activity): 87.6% | IC50 (EGFR tyrosine kinase; from the dose-response curve, read-out: IC50 to inhibit EGFR kinase activity): 0.005 µM | body weight and appearance at experiment termination ([1]; A431 xenograft nude mice): gained weight | tumor inhibition rate ([1]; A431 xenograft, 200 mg/kg oral gavage once daily (later reduced to 100 mg/kg)): 64.6% | toxic effects ([1]; at either dose (200 and 50 mg/kg)): No toxic effects were observed | anti-tumor effect (in words) ([1]; given orally, A431 xenograft mouse model): significant anti-tumor effects | H460 tumor inhibition rate ([2]; 30 mg/kg oral gavage once daily for 14 days): 37.5% | H460 tumor inhibition rate ([2]; 60 mg/kg oral gavage once daily for 14 days): 49.3% | H460 tumor inhibition rate ([2]; 120 mg/kg oral gavage once daily for 14 days): 52.0% | activity against tumor cells (in words) [3]: low activity | IC50 ([3]; Homo sapiens, 96 hr, MTT): 40.7 µM | activity against tumor cells (in words) ([4]; HCT8): low activity | IC50 ([4]; Homo sapiens, HCT-8, HCT8, 96 hr, MTT): > 200 µM | IC50 ([5]; A549, 96 hr, listed as lcotinib hydrochloride Crystalline Form I, hydrochloride): 12.2 µM | IC50 ([5]; Homo sapiens, A549, 96 h): 12 µM | activity against tumor cells (in words) ([6]; BEL-7402): low activity | IC50 ([6]; Homo sapiens, BEL-7402, 96 hr, MTT): > 200 µM | IC50 [7]: 1 µM | IC50 ([8]; H460, 96 hr, listed as lcotinib hydrochloride Crystalline Form I, hydrochloride): 16.1 µM | IC50 ([8]; Homo sapiens, NCI-H460, 96 h): 16 µM | IC50 ([9]; BGC-823, 96 hr, listed as lcotinib hydrochloride Crystalline Form I, hydrochloride): 4.06 µM | IC50 ([9]; Homo sapiens, BGC-823, 96 h): 4 µM | inhibition of Arg kinase [10]: did not inhibit
